The source made the active and inactive calls. The rule behind the calls is not given here.
Experiments:
T47D [1] = assay: Inhibition of human progesterone receptor B protein expression transfected in human T47D cells at 200 nM by Western blot; format: functional
T47D [2] = assay: Inhibition of human progesterone receptor A protein expression transfected in human T47D cells at 200 nM by Western blot; format: functional
T47D [3] = assay: Inhibition of human progesterone receptor B protein expression transfected in human T47D cells at 200 nM in presence of 10 nM of estradiol by Western blot; format: functional, cell-based
T47D [4] = assay: Inhibition of human progesterone receptor A gene expression transfected in human T47D cells at 200 nM by RT-PCR; format: functional, cell-based
T47D [5] = assay: Induction of morphology changes in human T47D cells expressing human progesterone receptor assessed as increase in cell height by confocal microscopy; format: functional, cell-based
T47D [6] = assay: Inhibition of human progesterone receptor B gene expression transfected in human T47D cells at 200 nM by RT-PCR; format: functional, cell-based
T47D [7] = assay: Reduction in cell proliferation of human T47D cells expressing human progesterone receptor by FACS method; format: functional, cell-based
T47D [8] = assay: Increase in Ezrin mRNA expression in human T47D cells expressing human progesterone receptor by RT-PCR relative to untreated control; format: functional
T47D [9] = assay: Inhibition of human progesterone receptor A protein expression transfected in human T47D cells at 200 nM in presence of 10 nM of estradiol by Western blot; format: functional, cell-based

Structure (SMILES) | inhibition (T47D [1]) | inhibition (T47D [2]) | inhibition (T47D [3]) | inhibition at 0.2 µM (T47D [1]) [%] | inhibition (T47D [4]) | Activity (T47D [5]) | inhibition (T47D [6]) | Activity (T47D [7]) | fold change (FC) (T47D [8]) | inhibition at 0.2 µM (T47D [2]) [%] | inhibition (T47D [9]) | Activity (T47D [8])
Cc1cn(CC(=O)N(CCNCC(=O)N(CCNC(=O)CN(CCNC(=O)CN(CCNC(=O)CN(CCNC(=O)CN(CCNC(=O)CN(CCNC(=O)CN(CCNC(=O)CN(CCNC(=O)CN(CCNC(=O)CN(CCNC(=O)CN(CCNC(=O)CN(CCNC(=O)CNC(=O)[C@@H](N)CCCCN)C(=O)Cn2cc(C)c(=O)[nH]c2=O)C(=O)Cn2cnc3nc(N)[nH]c(=O)c32)C(=O)Cn2c(N)ccnc2=O)C(=O)Cn2c(N)ccnc2=O)C(=O)Cn2c(N)ccnc2=O)C(=O)Cn2c(N)ccnc2=O)C(=O)Cn2c(N)ccnc2=O)C(=O)Cn2cnc3c(N)ncnc32)C(=O)Cn2cnc3nc(N)[nH]c(=O)c32)C(=O)Cn2cnc3c(N)ncnc32)C(=O)Cn2c(N)ccnc2=O)C(=O)Cn2cnc3c(N)ncnc32)CC(=O)NCCN(CC(=O)NCCN(CC(=O)NCCN(CC(=O)NCCN(CC(=O)NCCN(CC(=O)NCCN(CC(=O)N[C@@H](CCCCN)C(=O)O)C(=O)Cn2c(N)ccnc2=O)C(=O)Cn2cnc3nc(N)[nH]c(=O)c32)C(=O)Cn2cnc3nc(N)[nH]c(=O)c32)C(=O)Cn2cc(C)c(=O)[nH]c2=O)C(=O)Cn2c(N)ccnc2=O)C(=O)Cn2cnc3nc(N)[nH]c(=O)c32)c(=O)[nH]c1=O | inactive | inactive |  |  |  |  |  |  |  |  |  | 
Cc1cn(CC(=O)N(CCNC(=O)CN(CCNC(=O)CN(CCNC(=O)CN(CCNC(=O)CN(CCNC(=O)CN(CCNC(=O)CN(CCNC(=O)CN(CCNC(=O)CN(CCNC(=O)CN(CCNC(=O)CN(CCNC(=O)CN(CCNC(=O)CN(CCNC(=O)CN(CCNC(=O)CN(CCNC(=O)CNC(=O)[C@@H](N)CCCCN)C(=O)Cn2ccc(N)nc2=O)C(=O)Cn2ccc(N)nc2=O)C(=O)Cn2cnc3c(N)ncnc32)C(=O)Cn2cnc3c(=O)[nH]c(N)nc32)C(=O)Cn2cc(C)c(=O)[nH]c2=O)C(=O)Cn2ccc(N)nc2=O)C(=O)Cn2ccc(N)nc2=O)C(=O)Cn2cnc3c(N)ncnc32)C(=O)Cn2ccc(N)nc2=O)C(=O)Cn2cnc3c(N)ncnc32)C(=O)Cn2cnc3c(=O)[nH]c(N)nc32)C(=O)Cn2ccc(N)nc2=O)C(=O)Cn2cc(C)c(=O)[nH]c2=O)C(=O)Cn2cnc3c(=O)[nH]c(N)nc32)CC(=O)NCCN(CC(=O)NCCN(CC(=O)NCCN(CC(=O)NCCN(CC(=O)N[C@@H](CCCCN)C(=O)O)C(=O)Cn2cc(C)c(=O)[nH]c2=O)C(=O)Cn2ccc(N)nc2=O)C(=O)Cn2cnc3c(N)ncnc32)C(=O)Cn2ccc(N)nc2=O)c(=O)[nH]c1=O |  |  | Active | 75 | inactive | Active | inactive | Active | 3.5 | 75 | Active | 
Cc1cn([C@@H]2O[C@H](COP(=O)(O)O[C@H]3[C@@H](O)[C@H](n4cnc5c(=O)[nH]c(N)nc54)O[C@@H]3COP(=O)(O)O[C@H]3[C@@H](O)[C@H](n4ccc(=O)[nH]c4=O)O[C@@H]3COP(=O)(O)O[C@H]3C[C@H](n4cnc5c(N)ncnc54)O[C@@H]3COP(=O)(O)O[C@H]3[C@@H](O)[C@H](N4CC=C(N)NC4=O)O[C@@H]3COP(=O)(O)O[C@H]3[C@@H](O)[C@H](n4ccc(=O)[nH]c4=O)O[C@@H]3COP(=O)(O)O[C@H]3[C@@H](O)[C@H](N4CC=C(N)NC4=O)O[C@@H]3COP(=O)(O)O[C@H]3C[C@H](n4cnc5c(=O)[nH]c(N)nc54)O[C@@H]3COP(=O)(O)O[C@H]3[C@@H](O)[C@H](n4ccc(N)nc4=O)O[C@@H]3COP(=O)(O)O[C@H]3[C@@H](O)[C@H](n4ccc(N)nc4=O)O[C@@H]3COP(=O)(O)O[C@H]3[C@@H](O)[C@H](n4ccc(N)nc4=O)O[C@@H]3COP(=O)(O)O[C@H]3[C@@H](O)[C@H](n4ccc(N)nc4=O)O[C@@H]3COP(=O)(O)O[C@H]3[C@@H](O)[C@H](n4ccc(=O)[nH]c4=O)O[C@@H]3COP(=O)(O)O[C@H]3[C@@H](O)[C@H](n4cnc5c(=O)[nH]c(N)nc54)O[C@@H]3COP(=O)(O)O[C@H]3[C@@H](O)[C@H](n4ccc(=O)[nH]c4=O)O[C@@H]3COP(=O)(O)O[C@H]3C[C@H](n4ccc(=O)[nH]c4=O)O[C@@H]3COP(=O)(O)O[C@H]3[C@@H](O)[C@H](n4cnc5c(=O)[nH]c(N)nc54)O[C@@H]3COP(=O)(O)O[C@H]3[C@@H](O)[C@H](n4ccc(=O)[nH]c4=O)O[C@@H]3COP(=O)(O)O[C@H]3[C@@H](O)[C@H](n4cnc5c(=O)[nH]c(N)nc54)O[C@@H]3COP(=O)(O)O[C@H]3[C@@H](O)[C@H](n4cnc5c(=O)[nH]c(N)nc54)O[C@@H]3CO)[C@@H](OP(=O)(O)OC[C@H]3O[C@@H](n4cc(C)c(=O)[nH]c4=O)C[C@@H]3O)[C@H]2O)c(=O)[nH]c1=O |  |  |  |  |  | Active |  | Active | 5.5 |  |  | 
Cc1cn([C@H]2C[C@H](OP(=O)(O)OC[C@H]3O[C@@H](n4cc(C)c(=O)[nH]c4=O)C[C@@H]3O)[C@@H](COP(=O)(O)O[C@H]3[C@@H](O)[C@H](n4ccc(=O)[nH]c4=O)O[C@@H]3COP(=O)(O)O[C@H]3[C@@H](O)[C@H](n4ccc(N)nc4=O)O[C@@H]3COP(=O)(O)O[C@H]3[C@@H](O)[C@H](n4cnc5c(N)ncnc54)O[C@@H]3COP(=O)(O)O[C@H]3C[C@H](n4cnc5c(N)ncnc54)O[C@@H]3COP(=O)(O)O[C@H]3[C@@H](O)[C@H](n4ccc(N)nc4=O)O[C@@H]3COP(=O)(O)O[C@H]3C[C@H](n4cnc5c(N)ncnc54)O[C@@H]3COP(=O)(O)O[C@H]3[C@@H](O)[C@H](N4CC=C(N)NC4=O)O[C@@H]3COP(=O)(O)O[C@H]3[C@@H](O)[C@H](n4cnc5c(=O)[nH]c(N)nc54)O[C@@H]3COP(=O)(O)O[C@H]3[C@@H](O)[C@H](n4cnc5c(N)ncnc54)O[C@@H]3COP(=O)(O)O[C@H]3[C@@H](O)[C@H](N4CC=C(N)NC4=O)O[C@@H]3COP(=O)(O)O[C@H]3[C@@H](O)[C@H](n4cnc5c(=O)[nH]c(N)nc54)O[C@@H]3COP(=O)(O)O[C@H]3[C@@H](O)[C@H](n4cnc5c(=O)[nH]c(N)nc54)O[C@@H]3COP(=O)(O)O[C@H]3[C@@H](O)[C@H](n4cnc5c(=O)[nH]c(N)nc54)O[C@@H]3COP(=O)(O)O[C@H]3C[C@H](n4cnc5c(N)ncnc54)O[C@@H]3COP(=O)(O)O[C@H]3[C@@H](O)[C@H](n4cnc5c(N)ncnc54)O[C@@H]3COP(=O)(O)O[C@H]3[C@@H](O)[C@H](n4cnc5c(=O)[nH]c(N)nc54)O[C@@H]3COP(=O)(O)O[C@H]3[C@@H](O)[C@H](n4cnc5c(=O)[nH]c(N)nc54)O[C@@H]3COP(=O)(O)O[C@H]3[C@@H](O)[C@H](n4ccc(=O)[nH]c4=O)O[C@@H]3COP(=O)(O)O[C@H]3[C@@H](O)[C@H](n4cnc5c(N)ncnc54)O[C@@H]3CO)O2)c(=O)[nH]c1=O |  |  |  |  |  | Active |  | Active |  |  |  | 
Cc1cn(CC(=O)N(CCNC(=O)CNC(=O)[C@@H](N)CCCCN)CC(=O)NCCN(CC(=O)NCCN(CC(=O)NCCN(CC(=O)NCCN(CC(=O)NCCN(CC(=O)NCCN(CC(=O)NCCN(CC(=O)NCCN(CC(=O)NCCN(CC(=O)NCCN(CC(=O)NCCN(CC(=O)NCCN(CC(=O)NCCN(CC(=O)NCCN(CC(=O)NCCN(CC(=O)NCCN(CC(=O)NCCN(CC(=O)NCCN(CC(=O)N[C@@H](CCCCN)C(=O)O)C(=O)Cn2ccc(N)nc2=O)C(=O)Cn2cnc3c(=O)[nH]c(N)nc32)C(=O)Cn2cnc3c(=O)[nH]c(N)nc32)C(=O)Cn2cc(C)c(=O)[nH]c2=O)C(=O)Cn2cnc3c(N)ncnc32)C(=O)Cn2cnc3c(=O)[nH]c(N)nc32)C(=O)Cn2cc(C)c(=O)[nH]c2=O)C(=O)Cn2cc(C)c(=O)[nH]c2=O)C(=O)Cn2cnc3c(=O)[nH]c(N)nc32)C(=O)Cn2cnc3c(N)ncnc32)C(=O)Cn2cnc3c(=O)[nH]c(N)nc32)C(=O)Cn2ccc(N)nc2=O)C(=O)Cn2ccc(N)nc2=O)C(=O)Cn2cnc3c(N)ncnc32)C(=O)Cn2cnc3c(=O)[nH]c(N)nc32)C(=O)Cn2ccc(N)nc2=O)C(=O)Cn2cnc3c(N)ncnc32)C(=O)Cn2ccc(N)nc2=O)c(=O)[nH]c1=O | inactive | inactive |  |  | inactive | inactive | inactive | inactive |  |  |  | inactive
Cc1cn(CC(=O)N(CCNC(=O)CN(CCNC(=O)CN(CCNC(=O)CN(CCNC(=O)CN(CCNC(=O)CN(CCNC(=O)CN(CCNC(=O)CNC(=O)[C@@H](N)CCCCN)C(=O)Cn2c(N)ccnc2=O)C(=O)Cn2cnc3c(N)ncnc32)C(=O)Cn2c(N)ccnc2=O)C(=O)Cn2cnc3nc(N)[nH]c(=O)c32)C(=O)Cn2cnc3c(N)ncnc32)C(=O)Cn2cc(C)c(=O)[nH]c2=O)CC(=O)NCCN(CC(=O)NCCN(CC(=O)NCCN(CC(=O)NCCN(CC(=O)NCCN(C(=O)CNCCN(CC(=O)NCCN(CC(=O)NCCN(CC(=O)NCCN(CC(=O)NCCN(CC(=O)NCCN(CC(=O)NCCN(CC(=O)N[C@@H](CCCCN)C(=O)O)C(=O)Cn2cc(C)c(=O)[nH]c2=O)C(=O)Cn2cc(C)c(=O)[nH]c2=O)C(=O)Cn2cc(C)c(=O)[nH]c2=O)C(=O)Cn2cnc3nc(N)[nH]c(=O)c32)C(=O)Cn2cc(C)c(=O)[nH]c2=O)C(=O)Cn2cnc3c(N)ncnc32)C(=O)Cn2c(N)ccnc2=O)C(=O)Cn2cnc3nc(N)[nH]c(=O)c32)C(=O)Cn2cc(C)c(=O)[nH]c2=O)C(=O)Cn2c(N)ccnc2=O)C(=O)Cn2cc(C)c(=O)[nH]c2=O)C(=O)Cn2cc(C)c(=O)[nH]c2=O)c(=O)[nH]c1=O | inactive | inactive |  |  |  | inactive |  | inactive |  |  |  | 

From ChEMBL document CHEMBL1240303, “Inhibiting transcription of chromosomal DNA with antigene peptide nucleic acids” (2005)
